Values of other authors in publication PMC10406726, “Development, scrutiny, and modulation of transient reporter gene assays of the xenobiotic metabolism pathway in zebrafish hepatocytes” (Cell Biology and Toxicology, 2021).
Like-named read-outs stand apart in the source and are kept apart here.

Assays:
[1] = target: ESRRA (estrogen-related receptor alpha); parameters: method as in ToxCast database, CompTox dashboard; conditions: TOX21_ERR_Agonist; ref ToxCast database, CompTox dashboard; cited from earlier work
[2] = test system: FOS (FBJ murine osteosarcoma viral oncogene homolog); parameters: method as in ToxCast database, CompTox dashboard; conditions: ATG_AP_1_CIS_up; ref ToxCast database, CompTox dashboard; cited from earlier work
[3] = test system: NFE2L2 (nuclear factor, erythroid 2-like 2); parameters: method as in ToxCast database, CompTox dashboard; conditions: ATG_NRF2_ARE_CIS_up; ref ToxCast database, CompTox dashboard; cited from earlier work
[4] = test system: PPARG (peroxisome proliferator-activated receptor gamma); parameters: method as in ToxCast database, CompTox dashboard; conditions: ATG_PPARg_TRANS_up; ref ToxCast database, CompTox dashboard; cited from earlier work
ARE (channel 2) = test system: ARE (channel 2); parameters: method as in ToxCast database, CompTox dashboard; conditions: TOX21_ARE_BLA_Agonist_ch2; ref ToxCast database, CompTox dashboard; cited from earlier work
[5] = target: ESR1 (estrogen receptor 1); parameters: method as in ToxCast database, CompTox dashboard; conditions: ATG_ERa_TRANS_up; ref ToxCast database, CompTox dashboard; cited from earlier work
HEK293 (cell cycle) = test system: HEK293 (cell cycle); parameters: method as in ToxCast database, CompTox dashboard; conditions: TOX21_RT_HEK293_FLO_40hr_viability; ref ToxCast database, CompTox dashboard; cited from earlier work
[6] = target: ESR1 (estrogen receptor 1); parameters: method as in ToxCast database, CompTox dashboard; conditions: TOX21_ERa_LUC_VM7_Agonist; ref ToxCast database, CompTox dashboard; cited from earlier work
AR (androgen receptor) = target: AR (androgen receptor); parameters: method as in ToxCast database, CompTox dashboard; conditions: TOX21_AR_LUC_MDAKB2_Agonist; ref ToxCast database, CompTox dashboard; cited from earlier work
[7] = test system: NR1I3 (nuclear receptor subfamily 1, group I, member 3); parameters: method as in ToxCast database, CompTox dashboard; conditions: TOX21_CAR_Agonist; ref ToxCast database, CompTox dashboard; cited from earlier work
[8] = test system: NR1I2 (nuclear receptor subfamily 1, group I, member 2); parameters: method as in ToxCast database, CompTox dashboard; conditions: ATG_PXR_TRANS_up; ref ToxCast database, CompTox dashboard; cited from earlier work
ZFL cells = test system: ZFL cells; parameters: method as in Eknefelt [2018]; conditions: TCDD; same cellular context, identical exposure concentrations; ref Eknefelt [2018]; cited from earlier work

Compound	AC50 [1] [nM]	AC50 [2] [nM]	AC50 [3] [nM]	AC50 [4] [nM]	AC50 (ARE (channel 2)) [nM]	AC50 [5] [nM]	AC50 (HEK293 (cell cycle)) [nM]	AC50 [6] [nM]	AC50 (AR (androgen receptor)) [nM]	AC50 [7] [nM]	AC50 [8] [nM]	cytotoxicity, historical data (ZFL cells)
O=c1cc(-c2ccccc2)oc2ccc3ccccc3c12 [BNF, β-naphthoflavone]	67.2	156	157	750	1220	2860	5050	5150	5430	6070	6580	–
Clc1cc2c(cc1Cl)Oc1cc(Cl)c(Cl)cc1O2 [TCDD, 2,3,7,8-tetrachlorodibenzo-p-dioxin]	–	–	–	–	–	–	–	–	–	–	–	no TCDD-induced cytotoxicity
